# Test results taken from patent US10736932B2, “Small molecule Ras inhibitors” (Ohio State Innovation Foundation, priority 2014, dated 2020).
# Square brackets hold non-standard residues; d marks the D form. Side chains are listed from the residue outwards. Peptide text beside a SMILES is read from it. Phe(3,4-F2) = N[C@@H](Cc1ccc(F)c(F)c1)C(=O)O; Phe(4-F) = N[C@@H](Cc1ccc(F)cc1)C(=O)O; 2Nal = N[C@@H](Cc1ccc2ccccc2c1)C(=O)O; d2Nal = N[C@H](Cc1ccc2ccccc2c1)C(=O)O; Tle = CC(C)(C)[C@H](N)C(=O)O; dNle = CCCC[C@@H](N)C(=O)O
# Target: T1, K-Ras / Raf RBD interaction (Homo sapiens, UniProt P01116, G12V)
# T1 construct: The G12V mutant K-Ras (amino acids 1-185) was recombinantly fused; GST (N, cleaved yes); made in house; host or cells: Escherichia coli BL21
# Assay: HTRF assay, inhibition of Ras-Raf RBD interaction;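 also: HTRF signal read after overnight incubation of the assay plate at 4 °C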
# Format: binding
# Settings: not given
row,Structure (SMILES),IC50 [nM]
1,"C[C@H]1NC(=O)[C@H]([C@@H](C)O)NC(=O)[C@H](Cc2c[nH]c3ccccc23)NC(=O)[C@H](CCC(N)=O)NC(=O)[C@@H](CCCNC(=N)N)NC(=O)[C@H](Cc2ccc(F)cc2)NC(=O)[C@H](CCCNC(=N)N)NC(=O)[C@@H](Cc2ccc3ccccc3c2)NC(=O)[C@H](CCCNC(=N)N)NC(=O)[C@H](CCCNC(=N)N)NC(=O)[C@H](CCCNC(=N)N)NC1=O [Cyclorasin 9A45, (Trp-Thr-ala-Arg-Arg-Arg-nal-Arg-Fpa-arg-Gln)] (cyclo(WT[dA]RRR[d2Nal]R[Phe(4-F)][dR]Q))",36 ± 4
2,"CCCC[C@H]1NC(=O)[C@H](Cc2ccc(F)cc2)NC(=O)[C@H](CCCNC(=N)N)NC(=O)[C@@H](Cc2ccc3ccccc3c2)NC(=O)[C@H](CCCNC(=N)N)NC(=O)[C@H](CCCNC(=N)N)NC(=O)[C@H](CCCNC(=N)N)NC(=O)[C@@H](C)NC(=O)[C@H](C(C)(C)C)NC(=O)[C@H](Cc2c[nH]c3ccccc23)NC(=O)[C@H](CCC(N)=O)NC1=O [Cyclorasin 9A46, (Trp-Tle-ala-Arg-Arg-Arg-nal-Arg-Fpa-nle-Gln)] (cyclo(W[Tle][dA]RRR[d2Nal]R[Phe(4-F)][dNle]Q))",130 ± 20
3,"CCCC[C@H]1NC(=O)[C@H](Cc2ccc(F)cc2)NC(=O)[C@H](CCCNC(=N)N)NC(=O)[C@@H](Cc2ccc3ccccc3c2)NC(=O)[C@H](CCCNC(=N)N)NC(=O)[C@H](CCCNC(=N)N)NC(=O)[C@H](CCCNC(=N)N)NC(=O)[C@@H](C(C)C)NC(=O)[C@H]([C@@H](C)O)NC(=O)[C@H](Cc2c[nH]c3ccccc23)NC(=O)[C@H](CCC(N)=O)NC1=O [Cyclorasin 9A47, (Trp-Thr-val-Arg-Arg-Arg-nal-Arg-Fpa-nle-Gln)] (cyclo(WT[dV]RRR[d2Nal]R[Phe(4-F)][dNle]Q))",86 ± 11
4,"CCCC[C@H]1NC(=O)[C@H](Cc2ccc(F)cc2)NC(=O)[C@H](CCCNC(=N)N)NC(=O)[C@@H](Cc2ccc3ccccc3c2)NC(=O)[C@H](CCCNC(=N)N)NC(=O)[C@H](CCCNC(=N)N)NC(=O)[C@H](CCCNC(=N)N)NC(=O)[C@@H](C(C)C)NC(=O)[C@H](C(C)(C)C)NC(=O)[C@H](Cc2c[nH]c3ccccc23)NC(=O)[C@H](CCC(N)=O)NC1=O [Cyclorasin 9A48, (Trp-Tle-val-Arg-Arg-Arg-nal-Arg-Fpa-nle-Gln)] (cyclo(W[Tle][dV]RRR[d2Nal]R[Phe(4-F)][dNle]Q))",48 ± 3
5,"CCCC[C@H]1NC(=O)[C@H](Cc2ccc(F)cc2)NC(=O)[C@H](CCCNC(=N)N)NC(=O)[C@@H](Cc2ccc3ccccc3c2)NC(=O)[C@H](CCCNC(=N)N)NC(=O)[C@H](CCCNC(=N)N)NC(=O)[C@H](CCCNC(=N)N)NC(=O)[C@@H](C)NC(=O)[C@H]([C@@H](C)O)NC(=O)[C@H](Cc2ccc3ccccc3c2)NC(=O)[C@H](CCC(N)=O)NC1=O [Cyclorasin 9A49, (Nal-Thr-ala-Arg-Arg-Arg-nal-Arg-Fpa-nle-Gln)] (cyclo([2Nal]T[dA]RRR[d2Nal]R[Phe(4-F)][dNle]Q))",100 ± 10
6,"CCCC[C@H]1NC(=O)[C@H](Cc2ccc(F)c(F)c2)NC(=O)[C@H](CCCNC(=N)N)NC(=O)[C@@H](Cc2ccc3ccccc3c2)NC(=O)[C@H](CCCNC(=N)N)NC(=O)[C@H](CCCNC(=N)N)NC(=O)[C@@H](CCCNC(=N)N)NC(=O)[C@@H](C(C)C)NC(=O)[C@H](C(C)(C)C)NC(=O)[C@H](Cc2c[nH]c3ccccc23)NC(=O)[C@H](CCC(N)=O)NC1=O [Cyclorasin 9A51, (Trp-Tle-val-arg-Arg-Arg-nal-Arg-Phe(3,4-difluoro)-nle-Gln)] (cyclo(W[Tle][dV][dR]RR[d2Nal]R[Phe(3,4-F2)][dNle]Q))",15
7,"CCCC[C@H]1NC(=O)[C@H](Cc2ccc(F)cc2)NC(=O)[C@H](CCCNC(=N)N)NC(=O)[C@@H](Cc2ccc3ccccc3c2)NC(=O)[C@H](CCCNC(=N)N)NC(=O)[C@H](CCCNC(=N)N)NC(=O)[C@@H](CCCNC(=N)N)NC(=O)[C@@H](C(C)C)NC(=O)[C@H](C(C)(C)C)NC(=O)[C@H](Cc2c[nH]c3ccccc23)NC(=O)[C@H](CCC(N)=O)NC1=O [Cyclorasin 9A53, (Trp-Tle-val-arg-Arg-Arg-nal-Arg-Fpa-nle-Gln)] (cyclo(W[Tle][dV][dR]RR[d2Nal]R[Phe(4-F)][dNle]Q))",27 ± 11
8,"CCCC[C@H]1NC(=O)[C@H](Cc2ccc(F)c(F)c2)NC(=O)[C@H](CCCNC(=N)N)NC(=O)[C@@H](Cc2ccc3ccccc3c2)NC(=O)[C@H](CCCNC(=N)N)NC(=O)[C@H](CCCNC(=N)N)NC(=O)[C@H](CCCNC(=N)N)NC(=O)[C@@H](C(C)C)NC(=O)[C@H](C(C)(C)C)NC(=O)[C@H](Cc2c[nH]c3ccccc23)NC(=O)[C@H](CCC(N)=O)NC1=O [Cyclorasin 9A54, (Trp-Tle-val-Arg-Arg-Arg-nal-Arg-Phe(3,4-difluoro)-nle-Gln)] (cyclo(W[Tle][dV]RRR[d2Nal]R[Phe(3,4-F2)][dNle]Q))",18
9,"CCCC[C@H]1NC(=O)[C@H](Cc2ccc(F)cc2)NC(=O)[C@H](CCCNC(=N)N)NC(=O)[C@H](Cc2ccc3ccccc3c2)NC(=O)[C@H](CCCNC(=N)N)NC(=O)[C@H](CCCNC(=N)N)NC(=O)[C@H](CCCNC(=N)N)NC(=O)[C@@H](C)NC(=O)[C@H]([C@@H](C)O)NC(=O)[C@H](Cc2c[nH]c3ccccc23)NC(=O)[C@H](CCC(N)=O)NC1=O [Cyclorasin 9A55, (Trp-Thr-ala-Arg-Arg-Arg-Nal-Arg-Fpa-nle-Gln)] (cyclo(WT[dA]RRR[2Nal]R[Phe(4-F)][dNle]Q))",940 ± 280
10,"CCCC[C@H]1NC(=O)[C@H](Cc2ccc(F)cc2)NC(=O)[C@H](CCCNC(=N)N)NC(=O)[C@@H](Cc2ccc3ccccc3c2)NC(=O)[C@H](CCCNC(=N)N)NC(=O)[C@H](C)NC(=O)[C@H](CCC(=O)N[C@@H](CCCCN)C(N)=O)NC(=O)[C@@H](C)NC(=O)[C@H]([C@@H](C)O)NC(=O)[C@H](Cc2c[nH]c3ccccc23)NC(=O)[C@@H](CO)NC1=O [Cyclorasin 9A(Arg1A), (Ala-Arg-nal-Arg-Fpa-nle-ser-Trp-Thr-ala-Gln)-Lys] (cyclo(AR[d2Nal]R[Phe(4-F)][dNle][dS]WT[dA]E([Lys-NH2])))",1300 ± 200
11,"CCCC[C@H]1NC(=O)[C@H](Cc2ccc(F)cc2)NC(=O)[C@H](CCCNC(=N)N)NC(=O)[C@@H](Cc2ccc3ccccc3c2)NC(=O)[C@H](C)NC(=O)[C@H](CCCNC(=N)N)NC(=O)[C@H](CCC(=O)N[C@@H](CCCCN)C(N)=O)NC(=O)[C@@H](C)NC(=O)[C@H]([C@@H](C)O)NC(=O)[C@H](Cc2c[nH]c3ccccc23)NC(=O)[C@@H](CO)NC1=O [Cyclorasin 9A(Arg2A), (Arg-Ala-nal-Arg-Fpa-nle-ser-Trp-Thr-ala-Gln)-Lys] (cyclo(RA[d2Nal]R[Phe(4-F)][dNle][dS]WT[dA]E([Lys-NH2])))",940 ± 290
12,"CCCC[C@H]1NC(=O)[C@H](Cc2ccc(F)cc2)NC(=O)[C@H](C)NC(=O)[C@@H](Cc2ccc3ccccc3c2)NC(=O)[C@H](CCCNC(=N)N)NC(=O)[C@H](CCCNC(=N)N)NC(=O)[C@H](CCC(=O)N[C@@H](CCCCN)C(N)=O)NC(=O)[C@@H](C)NC(=O)[C@H]([C@@H](C)O)NC(=O)[C@H](Cc2c[nH]c3ccccc23)NC(=O)[C@@H](CO)NC1=O [Cyclorasin 9A(Arg4A), (Arg-Arg-nal-Ala-Fpa-nle-ser-Trp-Thr-ala-Gln)-Lys] (cyclo(RR[d2Nal]A[Phe(4-F)][dNle][dS]WT[dA]E([Lys-NH2])))",390 ± 280
13,"CCCC[C@H]1NC(=O)[C@H](C)NC(=O)[C@H](CCCNC(=N)N)NC(=O)[C@@H](Cc2ccc3ccccc3c2)NC(=O)[C@H](CCCNC(=N)N)NC(=O)[C@H](CCCNC(=N)N)NC(=O)[C@H](CCC(=O)N[C@@H](CCCCN)C(N)=O)NC(=O)[C@@H](C)NC(=O)[C@H]([C@@H](C)O)NC(=O)[C@H](Cc2c[nH]c3ccccc23)NC(=O)[C@@H](CO)NC1=O [Cyclorasin 9A(Fpa5A), (Arg-Arg-nal-Arg-Ala-nle-ser-Trp-Thr-ala-Gln)-Lys] (cyclo(RR[d2Nal]RA[dNle][dS]WT[dA]E([Lys-NH2])))",> 10000
14,"CCCC[C@H]1NC(=O)[C@H](Cc2ccc(F)cc2)NC(=O)[C@H](CCCNC(=N)N)NC(=O)[C@@H](Cc2ccc3ccccc3c2)NC(=O)[C@H](CCCNC(=N)N)NC(=O)[C@H](CCCNC(=N)N)NC(=O)[C@H](CCC(=O)N[C@@H](CCCCN)C(N)=O)NC(=O)[C@@H](C)NC(=O)[C@H](C)NC(=O)[C@H](Cc2c[nH]c3ccccc23)NC(=O)[C@@H](CO)NC1=O [Cyclorasin 9A(Thr9A), (Arg-Arg-nal-Arg-Fpa-nle-ser-Trp-Ala-ala-Gln)-Lys] (cyclo(A[dA]E([Lys-NH2])RR[d2Nal]R[Phe(4-F)][dNle][dS]W))",> 10000
15,"CCCC[C@H]1NC(=O)[C@H](Cc2ccc(F)cc2)NC(=O)[C@H](CCCNC(=N)N)NC(=O)[C@@H](Cc2ccc3ccccc3c2)NC(=O)[C@H](CCCNC(=N)N)NC(=O)[C@H](CCCNC(=N)N)NC(=O)[C@H](CCC(=O)N[C@@H](CCCCN)C(N)=O)NC(=O)[C@@H](C)NC(=O)[C@H]([C@@H](C)O)NC(=O)[C@H](C)NC(=O)[C@@H](CO)NC1=O [Cyclorasin 9A(Trp8A), (Arg-Arg-nal-Arg-Fpa-nle-ser-Ala-Thr-ala-Gln)-Lys] (cyclo(RR[d2Nal]R[Phe(4-F)][dNle][dS]AT[dA]E([Lys-NH2])))",7200 ± 1000
16,"C[C@H]1NC(=O)[C@H](Cc2ccc(F)cc2)NC(=O)[C@H](CCCNC(=N)N)NC(=O)[C@@H](Cc2ccc3ccccc3c2)NC(=O)[C@H](CCCNC(=N)N)NC(=O)[C@H](CCCNC(=N)N)NC(=O)[C@H](CCC(=O)N[C@@H](CCCCN)C(N)=O)NC(=O)[C@@H](C)NC(=O)[C@H]([C@@H](C)O)NC(=O)[C@H](Cc2c[nH]c3ccccc23)NC(=O)[C@@H](CO)NC1=O [Cyclorasin 9A(nle6dA), (Arg-Arg-nal-Arg-Fpa-ala-ser-Trp-Thr-ala-Gln)-Lys] (cyclo(RR[d2Nal]R[Phe(4-F)][dA][dS]WT[dA]E([Lys-NH2])))",7700 ± 5600
17,"CCCC[C@H]1NC(=O)[C@H](Cc2ccc(F)cc2)NC(=O)[C@H](CCCNC(=N)N)NC(=O)[C@@H](Cc2ccc3ccccc3c2)NC(=O)[C@H](CCCNC(=N)N)NC(=O)[C@H](CCCNC(=N)N)NC(=O)[C@H](CCC(=O)N[C@@H](CCCCN)C(N)=O)NC(=O)[C@@H](C)NC(=O)[C@H]([C@@H](C)O)NC(=O)[C@H](Cc2c[nH]c3ccccc23)NC(=O)[C@@H](C)NC1=O [Cyclorasin 9A(ser7dA), (Arg-Arg-nal-Arg-Fpa-nle-ala-Trp-Thr-ala-Gln)-Lys] (cyclo(RR[d2Nal]R[Phe(4-F)][dNle][dA]WT[dA]E([Lys-NH2])))",770 ± 490

# Same assay, conditions: relative to parent 9A5/9A6
row,Structure (SMILES),increase in Ras binding affinity upon residue substitution [fold]
1,"C[C@H]1NC(=O)[C@H]([C@@H](C)O)NC(=O)[C@H](Cc2c[nH]c3ccccc23)NC(=O)[C@H](CCC(N)=O)NC(=O)[C@@H](CCCNC(=N)N)NC(=O)[C@H](Cc2ccc(F)cc2)NC(=O)[C@H](CCCNC(=N)N)NC(=O)[C@@H](Cc2ccc3ccccc3c2)NC(=O)[C@H](CCCNC(=N)N)NC(=O)[C@H](CCCNC(=N)N)NC(=O)[C@H](CCCNC(=N)N)NC1=O [Cyclorasin 9A45, (Trp-Thr-ala-Arg-Arg-Arg-nal-Arg-Fpa-arg-Gln)] (cyclo(WT[dA]RRR[d2Nal]R[Phe(4-F)][dR]Q))",4
